Experiment [1] relates to CD4+ T cells. The experiment is described as follows: Proliferation of AAV-specific CD4+ T cells on peptide-loaded dendritic cells (thymidine incorporation). It is filed as cell-based, mice. The text has this: The peptide of interest is then produced by chemical synthesis together with a potentiating motif made of a cysteine residue added to flanking regions on each side of the epitope (SEQ ID NO: 18).
For orientation: Uptake of a labelled nucleoside into DNA is a usual measure of proliferation.

Experiment [2] relates to class II-restricted effector CD4+ T cells. The experiment is described as follows: Peptide added to dendritic cells in cultures with class II-restricted effector CD4+ T cells. The experiment is classed as cell-based, human. As for the experimental part: Naïve human CD4+ T cells are obtained from peripheral blood of subjects carrying either the DQ2 or DQ8 haplotype using microbeads coated with an anti-CD4+ antibody. Such cells are incubated with autologous dendritic cells derived from peripheral blood monocytes and loaded with peptide of sequence (SEQ ID NO: 19) so as to obtain effector CD4+ T cells.
In parallel experiments, a peptide of same sequence but containing a potentiating motif within flanking residues is used. Thus, a peptide of sequence (SEQ ID NO: 20) is produced, which contains in its flanking residues a sequence derived from an antibody to CD4, specific for the second extracellular domain of CD4.

Experiment [3] has as its system AAV vector. The experiment can be described thus: Immune response to IV AAV vector particles in peptide-immunized mice. The experiment is classed as in vivo. Particulars: 10^9 AAV vector particles IV twice at an interval of 6 weeks. The text has this:
Mice immunized with peptide of SEQ ID NO: 18 are then used for direct IV administration of 10^9 AAV vector particles administered twice at an interval of 6 weeks.

Experiment [4] relates to CD4+ T cells to the AAV capsid. The experiment can be described thus: Functional assay of spleen CD4+ T cells after subcutaneous immunisation with peptide in alum. The experiment is classed as in vivo, mice. The following applies: 4 subcutaneous administrations at fortnight intervals with alum; spleen 10 days after last immunization.

In the case of “SEQ ID NO: 17: AAV VP1 capsid peptide encompassing an epitope activating CD4+ T cells (FNGLDKGEPVNEA; AAV)”, the “specificity of CD4+ T cell activation by thymidine incorporation as a marker of proliferation” value in experiment [1] is given as “confirmed to be specific”.

For the substance “SEQ ID NO: 20: peptide of same sequence as SEQ ID NO: 19 with flanking sequence derived from an antibody to CD4 (QLQPFPQPQLPYPQRYD; SEQ I9 + CD4 motif)”, in experiment [2], the “apoptosis of antigen-presenting dendritic cell and bystander effector CD4+ T cells” value was “induction of apoptosis”; the “conversion of effector CD4+ T cells” value is “conversion of effector CD4+ T cells into cells with strong regulatory activity”.

Turning to “SEQ ID NO: 18: AAV VP1 epitope with a cysteine residue added to flanking regions on each side (HCFNGLDKGEPVNEACH; SEQ 17 + Cys and Cys)”, the “immune response towards the AAV vector” value in experiment [3] is “do not mount an immune response towards the AAV vector”. For the same substance, the “activity of CD4+ T cells obtained by the immunisation schedule” value in experiment [4] is “exert a regulatory activity”.

(Values after patent US20210015897A1, “METHODS TO PRODUCE PEPTIDES, POLYPEPTIDES OR CELLS FOR MODULATING IMMUNITY” (IMNATE SARL, priority 2017, published 2021).)
